In test [1] the target is T1, 14-3-3γ (Homo sapiens, UniProt P61981).
T1 construct: Full-length human 14-3-3γ was expressed by transforming pROEX HTb plasmid; His6; made in house; host or cells: Rosetta(DE3) Escherichia coli
T1 sequence (P61981 1-247): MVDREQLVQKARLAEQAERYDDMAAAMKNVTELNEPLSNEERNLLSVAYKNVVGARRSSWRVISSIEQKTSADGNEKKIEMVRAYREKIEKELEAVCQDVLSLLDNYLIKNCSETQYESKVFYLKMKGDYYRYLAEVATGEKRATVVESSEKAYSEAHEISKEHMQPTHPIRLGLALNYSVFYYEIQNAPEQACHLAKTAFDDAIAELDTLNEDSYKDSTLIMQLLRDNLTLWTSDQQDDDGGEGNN
The experiment in a line: Direct fluorescence anisotropy binding assay. The procedure: (§1) All direct fluorescence anisotropy affinity measurements were conducted in FA buffer (10 mM HEPES pH 7.4, 150 mM NaCl, 0.1% (v/v) Tween 20, 0.1% (w/v) BSA). A 1:1 dilution series of 14-3-3γ (starting at 100 μM) was performed in polystyrene non-binding low-volume Corning Black Round Bottom 384-well plates (Corning 4514) containing a fixed concentration FITC-labeled peptide (10 nM or 50 nM). Measurements were performed at ambient temperature using a Tecan Infinite F500 plate reader with the following parameters: λex: 485 (20) nm; λem: 535 (25) nm; mirror: Dichroic 510; flashes: 20; integration time: 50 μs; settle time; 0 μs; gain: manual 90; Z-position: calculated from well. The G-factor was set at 35 mP based on wells containing only the FITC-labeled peptide.
Fluorescence anisotropy binding assay of 14-3-3γ-binding peptides:
as §1, with “All” for “All direct”, “BSA). During each assay a” for “BSA). A”, “series” for “series of 14-3-3γ”, “μM) of 14-3-3γ” for “μM)”, “was made in wells containing a fixed concentration FITC-labeled peptide (10 nM or 50 nM). This was done” for “was performed”, “(Corning 4514).” for “(Corning 4514) containing a fixed concentration FITC-labeled peptide (10 nM or 50 nM).”

Test [2] deals with T1, 14-3-3γ. Put plainly: Fluorescence anisotropy competition assay with FITC-labeled BiExoS. The class given is binding. The procedure: All fluorescence anisotropy competition experiments were conducted in FA buffer (10 mM HEPES pH 7.4, 150 mM NaCl, 0.1% (v/v) Tween-20, 0.1% (w/v) BSA). A 1:1 dilution series of unlabeled peptides (starting at 10 μM) were performed in wells containing a fixed concentration FITC-labeled biExoS (10 nM) and 14-3-3γ (20 nM). Measurements were performed at ambient temperature using a Tecan Infinite F500 plate reader with the following parameters: λex = 485 (20) nm; λem = 535 (25) nm, mirror: Dichroic = 510, flashes: 20; integration time: 50 μs; settle time: 0 μs; gain: manual 90; and Z-position: calculated from well. The G-factor was set at 35 mP based on wells containing only the FITC-labeled peptide.
Competition fluorescence anisotropy binding assay of 14-3-3γ-binding peptides:
All fluorescence anisotropy affinity measurements were conducted in FA buffer (10 mM HEPES pH 7.4, 150 mM NaCl, 0.1% (v/v) Tween-20, 0.1% (w/v) BSA). During each assay a 1:1 dilution series (starting at 10 μM) of unlabeled peptides were made in wells containing a fixed concentration FITC-labeled biExoS (10 nM; FITC-O1Pen- […]
[…](GGSGGGGSGG)[…]-CONH2)5, and 14-3-3γ (20 nM).
This is done in polystyrene non -binding low-volume Corning Black Round Bottom 384 - well plates (Corning 4514). Measurements were performed at ambient temperature using a Tecan Infinite F500 plate reader with the following parameters : λex = 485 (20) nm; λem = 535 (25) nm, mirror: Dichroic = 510, flashes: 20; integration time: 50 μs; settle time: 0 μs; gain: manual 90; and Z-position: calculated from well. The G-factor was set at 35 mP based on wells containing only the FITC-labeled peptide.
Background: In fluorescence polarisation assays a small probe gives low polarisation when free and higher when bound to something large.

The next test concerns the target T2, 14-3-3σΔc (Homo sapiens, UniProt P31947).
T2 construct: The 14-3-3σ isoform with a truncated C-terminus after T321; His6 (cleaved yes); made in house; host or cells: BL21(DE3) Escherichia coli
T2 sequence (P31947 1-231 limits assumed): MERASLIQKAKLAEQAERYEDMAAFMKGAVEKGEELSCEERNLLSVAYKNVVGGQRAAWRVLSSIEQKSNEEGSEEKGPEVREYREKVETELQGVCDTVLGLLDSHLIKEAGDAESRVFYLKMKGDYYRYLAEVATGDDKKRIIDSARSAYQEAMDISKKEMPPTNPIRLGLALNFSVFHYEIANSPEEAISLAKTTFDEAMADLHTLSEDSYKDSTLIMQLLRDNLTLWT
The experiment in a line: Direct fluorescence anisotropy binding validation with 14-3-3σΔc. To be noted: 14-3-3σ.

A further test has as its system anti-HA mAb clone 12ca5. Put plainly: Competition fluorescence polarization of HA epitope and analogues. To be noted: for effect of mutation on affinity towards 12ca5: competition FP of HA epitope Ala scan mutants; for IC50: competition FP, 100 nM 12ca5, 28 nM YPYDVPDYAK(FITC)-CONH2, 1 mg/mL BSA, 0.02% Tween 20, 1x PBS, RT, read after 1 h; for Kd: from competition FP, 100 nM 12ca5, 28 nM FITC tracer. The test is classed as binding. The procedure:
Competition fluorescence polarization of HA epitope and analogues:
Solutions of unlabeled peptides (~1 mg/mL each; Supplementary Table 1) in 1x PBS was prepared in the presence of 100 nM 12ca5, 1 mg/mL BSA, 0.02% Tween 20 (120 μL). Fluorescent competitor was added (YPYDVPDYAK(FITC)α-CONH2; 28 nM).
The resulting solution was diluted serially (20 μL) into 100 nM 12ca5, 28 nM […]
YPYDVPDYAK(FITC)α-CONH2, 1 mg/mL BSA, 0.02% Tween 20 in 1x PBS (80 μL; […]
5-fold dilutions). The resulting solutions were transferred to a 96 well plate (Greiner Bio- […]
(RT), and read after 1 h on a Tecan Infinite M1000 plate reader (470 nm excitation; 517 nm detection; 5 nm bandwidth). The concentration of fluorescent […] was determined based on absorbance at 490 nm, using ε = 76,900 M-1cm-1.
Competition fluorescence polarization of HA epitope Ala scan mutants:
Competition fluorescence polarization experiments were carried out as described in Competition fluorescence polarization of HA epitope and analogues.

The mark [3] stands for this setting: FITC-labeled peptide (10 or 50 nM), 14-3-3γ dilution from 100 μM, FA buffer pH 7.4, ambient temperature, ± 95% confidence interval, read-out: KD.

Like-named read-outs stand apart in the source and are kept apart here. Non-standard residues stand in square brackets, D forms with d. Residues, ends and D or L forms follow the SMILES beside them. *: point of attachment. FITC = O=C1OC2(c3ccc(O)cc3Oc3cc(O)ccc32)c2ccc(NC(=S)*)cc21; Phe(4-NO2) = N[C@@H](Cc1ccc([N+](=O)[O-])cc1)C(=O)O; Ala(4-thiazolyl) = N[C@@H](Cc1cscn1)C(=O)O; β3hT = C[C@@H](O)[C@H](N)CC(=O)O; pS = N[C@@H](COP(=O)(O)O)C(=O)O; Aad = N[C@@H](CCCC(=O)O)C(=O)O; Cha = N[C@@H](CC1CCCCC1)C(=O)O; β3hS = N[C@@H](CO)CC(=O)O; Orn = NCCC[C@H](N)C(=O)O; Nva = CCC[C@H](N)C(=O)O; βAla = NCCC(=O)O

What is called Kd is the concentration at which binding is half-saturated. The IC50 is the concentration needed to halve the response being measured. Take `CC(C)C[C@@H](N)C(=O)N[C@@H](Cc1ccc([N+](=O)[O-])cc1)C(=O)N[C@@H](CO)CC(=O)N[C@@H](Cc1ccc([N+](=O)[O-])cc1)C(=O)N[C@@H](COP(=O)(O)O)C(=O)N[C@@H](Cc1ccc([N+](=O)[O-])cc1)C(=O)N[C@@H](CO)CC(=O)NCCC(=O)N[C@@H](Cc1ccc([N+](=O)[O-])cc1)C(=O)N[C@@H](CCCCN)C(N)=O` [14-3-3.1] (H-[dL][Phe(4-NO2)][β3hS][Phe(4-NO2)][pS][Phe(4-NO2)][β3hS][βAla][Phe(4-NO2)]K-NH2): at 14-3-3γ [1] (KD, FITC-labeled peptide (10 or 50 nM), 14-3-3γ dilution from 100 μM, FA buffer pH 7.4, ambient temperature, ± 95% confidence interval), the equilibrium dissociation constant (Kd) stood at 5.7 ± 1 nM. Besides, the 50% inhibitory concentration (IC50) at 14-3-3γ [2] was determined as 465 ± 45 nM.
For the molecule `NCCCC[C@H](NC(=O)[C@H](Cc1ccc([N+](=O)[O-])cc1)NC(=O)C[C@H](CO)NC(=O)C[C@H](CO)NC(=O)[C@H](Cc1ccc([N+](=O)[O-])cc1)NC(=O)[C@H](COP(=O)(O)O)NC(=O)[C@H](CCCN)NC(=O)C[C@H](CO)NC(=O)[C@H](CC1CCCCC1)NC(=O)[C@@H](N)CC1CCCCC1)C(N)=O` [14-3-3.6] (H-[Cha][Cha][β3hS][Orn][pS][Phe(4-NO2)][β3hS][β3hS][Phe(4-NO2)]K-NH2; N-terminus and C-terminus assumed), the equilibrium dissociation constant (Kd) at 14-3-3γ [1] (setting [3]) is 3.1 ± 0.3 nM. Moreover, the IC50 on 14-3-3γ [2] (unlabeled peptide from 10 μM, 10 nM FITC-labeled biExoS, 20 nM 14-3-3γ, FA buffer pH 7.4, ambient temperature, read-out: IC50) was determined as 77 ± 8 nM.
Regarding `CCC[C@H](NC(=O)[C@H](N)CCCCN)C(=O)N[C@@H](Cc1ccc([N+](=O)[O-])cc1)C(=O)N[C@@H](Cc1cscn1)C(=O)N[C@@H](COP(=O)(O)O)C(=O)N[C@@H](Cc1ccc([N+](=O)[O-])cc1)C(=O)N[C@@H](CO)CC(=O)NCCC(=O)N[C@@H](Cc1ccc([N+](=O)[O-])cc1)C(=O)N[C@@H](CCCCN)C(=O)NCCC(=O)N[C@@H](CCCCNC(=S)Nc1ccc2c(c1)C(=O)OC21c2ccc(O)cc2Oc2cc(O)ccc21)C(N)=O` [FITC-labeled 14-3-3.12] (H-[dK][Nva][Phe(4-NO2)][Ala(4-thiazolyl)][pS][Phe(4-NO2)][β3hS][βAla][Phe(4-NO2)]K[βAla]K(FITC)-NH2), the Kd on 14-3-3γ [1] (Kd, 14-3-3γ, 0 h after incubation) came to 19.5 nM; at 14-3-3γ [1] (Kd, 14-3-3γ, 4 h after incubation) it was 19.4 nM; on 14-3-3γ [1] (Kd, 14-3-3γ, 20 h after incubation) it was 21.9 nM; on 14-3-3σΔc (0 h after incubation) it was 229 nM; at 14-3-3σΔc (4 h after incubation), 169 nM; on 14-3-3σΔc (20 h after incubation), 102 nM.
With `C[C@@H](O)[C@@H](CC(=O)N[C@@H](CCCCN)C(N)=O)NC(=O)[C@H](Cc1ccc([N+](=O)[O-])cc1)NC(=O)[C@H](Cc1cscn1)NC(=O)[C@H](CCCC(=O)O)NC(=O)[C@H](COP(=O)(O)O)NC(=O)[C@H](Cc1cscn1)NC(=O)[C@@H](CCC(N)=O)NC(=O)C[C@H](CO)NC(=O)[C@H](N)CCCCN` [NB.1] (H-[dK][β3hS][dQ][Ala(4-thiazolyl)][pS][Aad][Ala(4-thiazolyl)][Phe(4-NO2)][β3hT]K-NH2; N-terminus and C-terminus assumed), at 14-3-3γ [1] (setting [3]), the Kd was 64000 ± 20000 nM. Moreover, at 14-3-3γ [1] (fluorescence anisotropy, FITC-labeled peptides), the “fold weaker binding than the 14-3-3γ-binding peptides” value is ~ 10,000 fold. Moreover, at 14-3-3γ [2] (unlabeled peptide, 10 nM FITC-labeled biExoS, 20 nM 14-3-3γ), the “inhibitory activity (competition with BiExoS)” value is “no inhibitory activity”.
On to `CC(C)[C@H](NC(=O)[C@H](CC(=O)O)NC(=O)[C@H](Cc1ccc(O)cc1)NC(=O)[C@@H]1CCCN1C(=O)[C@@H](N)Cc1ccc(O)cc1)C(=O)N1CCC[C@H]1C(=O)N[C@@H](CC(=O)O)C(=O)N[C@@H](Cc1ccc(O)cc1)C(=O)NCC(N)=O` [YPYDVPDYG] (H-YPYDVPDYG-NH2; N-terminus assumed), for which, in the test with anti-HA mAb clone 12ca5, the “effect of mutation on affinity towards 12ca5” value (“effect of mutation” below) is on record as “deleterious but did not completely abolish binding”, the IC50 stood at 3600 ± 1000 nM and the Kd was determined as 170 ± 70 nM.
In the test with anti-HA mAb clone 12ca5, `NC(=O)[C@@H](Cc1c[nH]cn1)NC(=O)[C@H]1CCCN1C(=O)[C@@H](CCC(=O)O)NC(=O)[C@@H](CC(=O)O)NC(=O)[C@@H](Cc1ccccc1)NC(=O)[C@@H](CCC(=O)O)NC(=O)[C@@H](Cc1ccc(O)cc1)NC(=O)[C@H]1CCCN1C(=O)[C@H](N)Cc1ccc(O)cc1` [ypyefdeph, reference compound] (H-[dY][dP][dY][dE][dF][dD][dE][dP][dH]-NH2) showed an IC50 of 380000 ± 25000 nM and a dissociation constant (Kd) of 18000 ± 4000 nM.
Take YPYAVPDYAα-CONH2: the “effect of mutation” value with anti-HA mAb clone 12ca5 is reported as “deleterious but did not completely abolish binding”.
As for YPYDVPAYAα-CONH2, in the test with anti-HA mAb clone 12ca5, the “effect of mutation” value was “completed abrogated affinity”.
Turning to YPYDVPDAAα-CONH2, the “effect of mutation” value with anti-HA mAb clone 12ca5 is “completed abrogated affinity”.

(Values after paper PMC7311396, “Ultra-large chemical libraries for the discovery of high-affinity peptide binders” (Nature Communications, 2020).)
